Measurements from PubChem BioAssay AID1963445 (Molecular Pharmacology Branch, DTP, NCI, 2024).

Test system: MCF7 complex spheroid growth, % test/control
Experiment: Anticancer human tumor MCF7 cell line growth inhibition [Asc];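 also: spheroids exposed to compounds for 7 days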;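 as to viability, T/C: 100% = DMSO vehicle control wells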
Settings: for IC50: curve of first compound; for viability, T/C: stronger effect = lower value
In short: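 Spheroid model: tumor line + HUVEC + hMSC. Single agents and combinations; top conc. at/near clinical Cmax (10 microM if undetermined), half-log dilutions. DMSO stocks at 800-fold test concentration.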

## NC(=O)C(=Cn1cnc(-c2cc(C(F)(F)F)cc(C(F)(F)F)c2)n1)c1cncnc1 + CNC(C)C(=O)NC1CN(S(=O)(=O)c2cccc(S(=O)(=O)N3CCC4CCC(C(=O)NC(c5ccccc5)c5ccccc5)N4C(=O)C(NC(=O)C(C)NC)C3)c2)CCC2CCC(C(=O)NC(c3ccccc3)c3ccccc3)N2C1=O
Second compound 0.00316 µM
  IC50: < 0.949 nM
Second compound 0.01 µM
  IC50: < 0.949 nM
Second compound 0.0316 µM
  IC50: < 0.949 nM
Second compound 0.1 µM
  IC50: < 0.949 nM
Second compound 0.316 µM
  IC50: < 0.949 nM
Second compound 1 µM
  IC50: < 0.949 nM
Second compound 0.00316 µM, first compound 0.000949 µM
  viability, T/C: 38.3%
Second compound 0.00316 µM, first compound 0.003 µM
  viability, T/C: 35.7%
Second compound 0.00316 µM, first compound 0.00949 µM
  viability, T/C: 23.6%
Second compound 0.00316 µM, first compound 0.03 µM
  viability, T/C: 16.3%
Second compound 0.00316 µM, first compound 0.0949 µM
  viability, T/C: 15.7%
Second compound 0.00316 µM, first compound 0.3 µM
  viability, T/C: 19.8%
Second compound 0.01 µM, first compound 0.000949 µM
  viability, T/C: 17.5%
Second compound 0.01 µM, first compound 0.003 µM
  viability, T/C: 12.1%
Second compound 0.01 µM, first compound 0.00949 µM
  viability, T/C: 11.6%
Second compound 0.01 µM, first compound 0.03 µM
  viability, T/C: 14.1%
Second compound 0.01 µM, first compound 0.0949 µM
  viability, T/C: 17.8%
Second compound 0.01 µM, first compound 0.3 µM
  viability, T/C: 16.7%
Second compound 0.0316 µM, first compound 0.000949 µM
  viability, T/C: 17.1%
Second compound 0.0316 µM, first compound 0.003 µM
  viability, T/C: 12.9%
Second compound 0.0316 µM, first compound 0.00949 µM
  viability, T/C: 13.1%
Second compound 0.0316 µM, first compound 0.03 µM
  viability, T/C: 17%
Second compound 0.0316 µM, first compound 0.0949 µM
  viability, T/C: 19%
Second compound 0.0316 µM, first compound 0.3 µM
  viability, T/C: 20.2%
Second compound 0.1 µM, first compound 0.000949 µM
  viability, T/C: 14.6%
Second compound 0.1 µM, first compound 0.003 µM
  viability, T/C: 14.6%
Second compound 0.1 µM, first compound 0.00949 µM
  viability, T/C: 13.7%
Second compound 0.1 µM, first compound 0.03 µM
  viability, T/C: 14.3%
Second compound 0.1 µM, first compound 0.0949 µM
  viability, T/C: 22.9%
Second compound 0.1 µM, first compound 0.3 µM
  viability, T/C: 22.2%
Second compound 0.316 µM, first compound 0.000949 µM
  viability, T/C: 12.9%
Second compound 0.316 µM, first compound 0.003 µM
  viability, T/C: 16%
Second compound 0.316 µM, first compound 0.00949 µM
  viability, T/C: 14.4%
Second compound 0.316 µM, first compound 0.03 µM
  viability, T/C: 14.5%
Second compound 0.316 µM, first compound 0.0949 µM
  viability, T/C: 22.4%
Second compound 0.316 µM, first compound 0.3 µM
  viability, T/C: 23.7%
Second compound 1 µM, first compound 0.000949 µM
  viability, T/C: 13.9%
Second compound 1 µM, first compound 0.003 µM
  viability, T/C: 16%
Second compound 1 µM, first compound 0.00949 µM
  viability, T/C: 13.9%
Second compound 1 µM, first compound 0.03 µM
  viability, T/C: 16.6%
Second compound 1 µM, first compound 0.0949 µM
  viability, T/C: 18.5%
Second compound 1 µM, first compound 0.3 µM
  viability, T/C: 22.3%

## NC1CCC(NC2CC2c2ccccc2)CC1 (centres undefined) + CNC(C)C(=O)NC1CN(S(=O)(=O)c2cccc(S(=O)(=O)N3CCC4CCC(C(=O)NC(c5ccccc5)c5ccccc5)N4C(=O)C(NC(=O)C(C)NC)C3)c2)CCC2CCC(C(=O)NC(c3ccccc3)c3ccccc3)N2C1=O
Second compound 0.00316 µM
  IC50: < 0.316 nM
Second compound 0.01 µM
  IC50: < 0.316 nM
Second compound 0.0316 µM
  IC50: < 0.316 nM
Second compound 0.1 µM
  IC50: < 0.316 nM
Second compound 0.316 µM
  IC50: < 0.316 nM
Second compound 1 µM
  IC50: < 0.316 nM
Second compound 0.00316 µM, first compound 0.000316 µM
  viability, T/C: 23.3%
Second compound 0.00316 µM, first compound 0.001 µM
  viability, T/C: 18.5%
Second compound 0.00316 µM, first compound 0.00316 µM
  viability, T/C: 16.4%
Second compound 0.00316 µM, first compound 0.01 µM
  viability, T/C: 21.6%
Second compound 0.00316 µM, first compound 0.0316 µM
  viability, T/C: 18.2%
Second compound 0.00316 µM, first compound 0.1 µM
  viability, T/C: 22.6%
Second compound 0.01 µM, first compound 0.000316 µM
  viability, T/C: 11.9%
Second compound 0.01 µM, first compound 0.001 µM
  viability, T/C: 12.3%
Second compound 0.01 µM, first compound 0.00316 µM
  viability, T/C: 12.2%
Second compound 0.01 µM, first compound 0.01 µM
  viability, T/C: 10.7%
Second compound 0.01 µM, first compound 0.0316 µM
  viability, T/C: 10.4%
Second compound 0.01 µM, first compound 0.1 µM
  viability, T/C: 10.8%
Second compound 0.0316 µM, first compound 0.000316 µM
  viability, T/C: 11.2%
Second compound 0.0316 µM, first compound 0.001 µM
  viability, T/C: 9.92%
Second compound 0.0316 µM, first compound 0.00316 µM
  viability, T/C: 10.8%
Second compound 0.0316 µM, first compound 0.01 µM
  viability, T/C: 10.2%
Second compound 0.0316 µM, first compound 0.0316 µM
  viability, T/C: 10.9%
Second compound 0.0316 µM, first compound 0.1 µM
  viability, T/C: 11.9%
Second compound 0.1 µM, first compound 0.000316 µM
  viability, T/C: 13.9%
Second compound 0.1 µM, first compound 0.001 µM
  viability, T/C: 12.6%
Second compound 0.1 µM, first compound 0.00316 µM
  viability, T/C: 12.5%
Second compound 0.1 µM, first compound 0.01 µM
  viability, T/C: 10.5%
Second compound 0.1 µM, first compound 0.0316 µM
  viability, T/C: 13.6%
Second compound 0.1 µM, first compound 0.1 µM
  viability, T/C: 13.8%
Second compound 0.316 µM, first compound 0.000316 µM
  viability, T/C: 11.4%
Second compound 0.316 µM, first compound 0.001 µM
  viability, T/C: 16.8%
Second compound 0.316 µM, first compound 0.00316 µM
  viability, T/C: 16.9%
Second compound 0.316 µM, first compound 0.01 µM
  viability, T/C: 15.8%
Second compound 0.316 µM, first compound 0.0316 µM
  viability, T/C: 12%
Second compound 0.316 µM, first compound 0.1 µM
  viability, T/C: 14.2%
Second compound 1 µM, first compound 0.000316 µM
  viability, T/C: 13.1%
Second compound 1 µM, first compound 0.001 µM
  viability, T/C: 12.3%
Second compound 1 µM, first compound 0.00316 µM
  viability, T/C: 13.9%
Second compound 1 µM, first compound 0.01 µM
  viability, T/C: 15.8%
Second compound 1 µM, first compound 0.0316 µM
  viability, T/C: 15%
Second compound 1 µM, first compound 0.1 µM
  viability, T/C: 10.2%
